This data set deals with rodent carcinogenicity bioassays, tumor incidence. The data set can be described thus: CCRIS carcinogenicity studies. The procedure, abridged:
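NCI-built, expert-reviewed records of carcinogenicity and related test outcomes (mutagenicity, tumor promotion/inhibition) compiled from published and report sources, historical span 1985-2011, not updated.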

The structures appear in SMILES notation. Activity calls are given as the source filed them. No rule for the calls is given here.

With `CC(=O)Nc1ccc(O)cc1`, the carcinogen call is, setting by setting: (Species: MOUSE, Strain/Sex: B6C3F1/FEMALE, Route: ORAL, Dose: 0, 600, 3000, 6000 PPM IN DIET FOR 103 WK (STUDY DURATION: 106 WK), Dose: 0, 600, 3000, 6000 PPM IN DIET FOR 103 WK (STUDY DURATION: 106 WK)) “inactive; negative”; (Species: MOUSE, Strain/Sex: B6C3F1/MALE, Route: ORAL, Dose: 0, 600, 3000, 6000 PPM IN DIET FOR 103 WK (STUDY DURATION: 106 WK), Dose: 0, 600, 3000, 6000 PPM IN DIET FOR 103 WK (STUDY DURATION: 106 WK)) “inactive; negative”; (Species: MOUSE, Strain/Sex: B6C3F1/MALE, Route: ORAL, Dose: 0, 5000, 10000 PPM IN DIET BEGINNING AT 6 WK OF AGE AND CONTINUING FOR 70 WK (STUDY DURATION: 72 WK), Dose: 0, 5000, 10000 PPM IN DIET BEGINNING AT 6 WK OF AGE AND CONTINUING FOR 70 WK (STUDY DURATION: 72 WK)) “inactive; negative”; (Species: MOUSE, Strain/Sex: STRAIN-IF/FEMALE, Route: ORAL, Dose: 0, 0.5, 1% IN DIET FOR 18 MO (STUDY DURATION: 18 MO), Dose: 0, 0.5, 1% IN DIET FOR 18 MO (STUDY DURATION: 18 MO), Tumor Site: Type of Lesion: LIVER: HEPATOCELLULAR CARCINOMA OR ADENOMA) “active; positive”; (Species: MOUSE, Strain/Sex: STRAIN-IF/MALE,FEMALE, Route: ORAL, Dose: 0.5, 1.0% IN DIET FOR 18 MO, Tumor Site: Type of Lesion: LIVER: HEPATOCELLULAR ADENOMA, CARCINOMA) “active; positive”; (Species: MOUSE, Strain/Sex: STRAIN-IF/MALE, Route: ORAL, Dose: 0, 0.5, 1% IN DIET FOR 18 MO (STUDY DURATION: 18 MO), Dose: 0, 0.5, 1% IN DIET FOR 18 MO (STUDY DURATION: 18 MO), Tumor Site: Type of Lesion: LIVER: HEPATOCELLULAR CARCINOMA, HEPATOCELLULAR ADENOMA OR CARCINOMA) “active; positive”. Besides, the carcinogen call (Species: RAT, Strain/Sex: F344/FEMALE, Route: ORAL, Dose: 0, 0.65, 1.3% IN DIET FOR 104 WK (STUDY DURATION: 130 WK), Dose: 0, 0.65, 1.3% IN DIET FOR 104 WK (STUDY DURATION: 130 WK)) is “inactive; negative”; the carcinogen call (Species: RAT, Strain/Sex: F344/FEMALE, Route: ORAL, Dose: 0, 600, 3000, 6000 PPM IN DIET FOR 103 WK (STUDY DURATION: 106 WK), Dose: 0, 600, 3000, 6000 PPM IN DIET FOR 103 WK (STUDY DURATION: 106 WK), Tumor Site: Type of Lesion: MULTIPLE ORGANS: MONONUCLEAR CELL LEUKEMIA) is “equivocal”; the carcinogen call (Species: RAT, Strain/Sex: F344/MALE, Route: ORAL, Dose: 0, 0.45, 0.9% IN DIET FOR 104 WK (STUDY DURATION: 130 WK), Dose: 0, 0.45, 0.9% IN DIET FOR 104 WK (STUDY DURATION: 130 WK)) is “inactive; negative”; the carcinogen call (Species: RAT, Strain/Sex: F344/MALE, Route: ORAL, Dose: 0, 600, 3000, 6000 PPM IN DIET FOR 103 WK (STUDY DURATION: 106 WK), Dose: 0, 600, 3000, 6000 PPM IN DIET FOR 103 WK (STUDY DURATION: 106 WK)) is “inactive; negative”.

As to `CN(CCC#N)N=O`, the carcinogen call by setting is: (Species: RAT, Strain/Sex: F344/FEMALE, Route: SUBCUTANEOUS, Dose: 0, 0.019 MMOL 3/WK FOR 20 WK (STUDY DURATION: 24 WK), Tumor Site: Type of Lesion: ESOPHAGUS: PAPILLOMA, NASAL CAVITY: PAPILLOMA, TONGUE: PAPILLOMA OR CARCINOMA, Tumor Site: Type of Lesion: ESOPHAGUS: PAPILLOMA, NASAL CAVITY: PAPILLOMA, TONGUE: PAPILLOMA OR CARCINOMA) “active; positive”; (Species: RAT, Strain/Sex: F344/MALE, FEMALE, Route: SUBCUTANEOUS, Dose: 0, 2.13 MG IN 0.3 ML SALINE 3/WK FOR 20 WK (TOTAL DOSE 127.8 MG) (STUDY DURATION: 24 WK), Tumor Site: Type of Lesion: ESOPHAGUS: SQUAMOUS CELL PAPILLOMA, SQUAMOUS CELL CARCINOMA, TONGUE: PAPILLOMA, CARCINOMA, NASAL CAVITY: PAPILLOMA, ESTH, Tumor Site: Type of Lesion: ESOPHAGUS: SQUAMOUS CELL PAPILLOMA, SQUAMOUS CELL CARCINOMA, TONGUE: PAPILLOMA, CARCINOMA, NASAL CAVITY: PAPILLOMA, ESTH) “active; positive”; (Species: RAT, Strain/Sex: F344/MALE,FEMALE, Route: SUBCUTANEOUS, Dose: 2.13 MG 3/WK FOR 20 WK (TOTAL DOSE 129 MG), Tumor Site: Type of Lesion: ESOPHAGUS: PAPILLOMA, CARCINOMA, NASAL CAVITY: PAPILLOMA, TONGUE: PAPILLOMA, CARCINOMA, Tumor Site: Type of Lesion: ESOPHAGUS: PAPILLOMA, CARCINOMA, NASAL CAVITY: PAPILLOMA, TONGUE: PAPILLOMA, CARCINOMA) “active; positive”; (Species: RAT, Strain/Sex: F344/MALE, Route: MUCOUS MEMBRANE, Dose: 0, 0.3 ML OF A 15 MMOL WATER SOLUTION 1/D 3 D/WK FOR 1 WK THEN 1/D 5 D/WK FOR WK 2-4 THEN 2/D 5 D/WK FOR WK 5-6 (STUDY D, Tumor Site: Type of Lesion: NASAL CAVITY: CARCINOMA, PAPILLOMA, ADENOMA, LUNG: ADENOCARCINOMA, ADENOMA, LIVER: CARCINOMA, ADENOMA, ESOPHAGUS: PAPILL, Tumor Site: Type of Lesion: NASAL CAVITY: CARCINOMA, PAPILLOMA, ADENOMA, LUNG: ADENOCARCINOMA, ADENOMA, LIVER: CARCINOMA, ADENOMA, ESOPHAGUS: PAPILL) “active; positive”; (Species: RAT, Strain/Sex: F344/MALE, Route: SUBCUTANEOUS, Dose: 0, 0.019 MMOL 3/WK FOR 20 WK (STUDY DURATION: 24 WK), Tumor Site: Type of Lesion: ESOPHAGUS: PAPILLOMA, NASAL CAVITY: PAPILLOMA, TONGUE: PAPILLOMA OR CARCINOMA, Tumor Site: Type of Lesion: ESOPHAGUS: PAPILLOMA, NASAL CAVITY: PAPILLOMA, TONGUE: PAPILLOMA OR CARCINOMA) “active; positive”.

Consider `CCC1c2ccc(O)cc2C(C)C1c1ccc(O)cc1` (centres undefined), for which the carcinogen call (Species: HAMSTER, Strain/Sex: SYRIAN/MALE, Route: SUBCUTANEOUS IMPLANT, Dose: 0, 20 MG IN PELLETS IMPLANTED EVERY 2.5 MO FOR 9 MO (STUDY DURATION: 9 MO)) is “inactive; negative”.

As to `Nc1cccc2ccccc12`, the carcinogen call was “inactive; negative” (Species: DOG, Strain/Sex: BEAGLE/FEMALE, Route: ORAL, Dose: 22.0 MG/KG 5/WK) and “inactive; negative” (Species: DOG, Strain/Sex: BEAGLE/MALE, Route: ORAL, Dose: 18.4 MG/KG 5/WK).

As to `Oc1ccc(-c2c(Cl)cc(Cl)cc2Cl)cc1`, the carcinogen call was “active; positive; (statistically significant for total number of tumors)” (Species: MOUSE, Strain/Sex: BALB/CCRGL/FEMALE, Route: SUBCUTANEOUS, Dose: 20 UG DAILY FOR 5 D BEGINNING 16 HR AFTER BIRTH (STUDY DURATION: 20 MO), Tumor Site: Type of Lesion: MAMMARY GLAND: CARCINOMA (5/33), CERVICOVAGINAL TRACT: CARCINOMA (2/33), LUNG TUMORS (3/33), Tumor Site: Type of Lesion: MAMMARY GLAND: CARCINOMA (5/33), CERVICOVAGINAL TRACT: CARCINOMA (2/33), LUNG TUMORS (3/33)) and “active; positive” (Species: MOUSE, Strain/Sex: BALB/CCRGL/FEMALE, Route: SUBCUTANEOUS, Dose: 200 UG DAILY FOR 5 D BEGINNING 16 HR AFTER BIRTH (STUDY DURATION: 20 MO), Tumor Site: Type of Lesion: CERVICOVAGINAL TRACT: CARCINOMA (10/22)).

`CCOP(=S)(OCC)SCCSCC`: the carcinogen call (Species: Mouse, Strain/Sex: CD/Female (60/Group with 10 used as replacements), Route: Oral, Dose: 0, 1, 4, 16 ppm 98.2% disulfoton in diet for 99 wks, study duration 99 wks, Dose: 0, 1, 4, 16 ppm 98.2% disulfoton in diet for 99 wks, study duration 99 wks) was “inactive; negative”; the carcinogen call (Species: Mouse, Strain/Sex: CD/Male (60/Group with 10 used as replacements), Route: Oral, Dose: 0, 1, 4, 16 ppm 98.2% disulfoton in diet for 99 wks, study duration 99 wks, Dose: 0, 1, 4, 16 ppm 98.2% disulfoton in diet for 99 wks, study duration 99 wks) was “inactive; negative”; the carcinogen call (Species: Rat, Strain/Sex: F344/Female (50/Group), Route: Oral, Dose: 0, 1, 4, 16 ppm 97.6% disulfoton in diet for 105 wks, study duration 105 wks, Dose: 0, 1, 4, 16 ppm 97.6% disulfoton in diet for 105 wks, study duration 105 wks) was “inactive; negative”; the carcinogen call (Species: Rat, Strain/Sex: F344/Male (50/Group), Route: Oral, Dose: 0, 1, 4, 16 ppm 97.6% disulfoton in diet for 105 wks, study duration 105 wks, Dose: 0, 1, 4, 16 ppm 97.6% disulfoton in diet for 105 wks, study duration 105 wks) was “inactive; negative”.

For the origin of these results see PubChem BioAssay AID1259411 (Chemical Carcinogenesis Research Information System (CCRIS), 2018).
